# Patent US7709645B2, “Pyrrolo-pyridine kinase modulators” (SGX Pharmaceuticals, Inc., priority 2004, dated 2010)
# pIC50: −log10 of the molar value.
# Target: T1, PDK1 kinase (Homo sapiens, UniProt O15530)
# T1 construct: 6x Histidine tag (TEV-cleavable) (cleaved yes); made in house; host or cells: Sf9 insect cells
# T1 sequence (O15530 1-556): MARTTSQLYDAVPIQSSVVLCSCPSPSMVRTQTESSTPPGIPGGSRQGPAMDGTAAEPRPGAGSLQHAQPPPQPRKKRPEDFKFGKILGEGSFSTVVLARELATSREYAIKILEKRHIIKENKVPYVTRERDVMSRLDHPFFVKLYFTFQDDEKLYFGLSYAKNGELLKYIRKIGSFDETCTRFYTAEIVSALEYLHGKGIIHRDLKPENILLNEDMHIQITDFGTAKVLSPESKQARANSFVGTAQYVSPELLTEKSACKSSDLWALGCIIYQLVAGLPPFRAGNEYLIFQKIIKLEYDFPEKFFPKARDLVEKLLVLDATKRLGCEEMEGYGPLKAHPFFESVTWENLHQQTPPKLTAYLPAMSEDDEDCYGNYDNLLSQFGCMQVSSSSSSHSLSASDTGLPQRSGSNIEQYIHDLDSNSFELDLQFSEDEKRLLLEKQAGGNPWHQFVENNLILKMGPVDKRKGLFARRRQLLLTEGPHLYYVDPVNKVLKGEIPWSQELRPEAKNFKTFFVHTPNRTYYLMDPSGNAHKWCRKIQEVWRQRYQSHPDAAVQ
# Assay: PDK1 Bioassay (luminescence-based enzyme assay, Kinase-Glo)
# Assay type: biochemical
# Settings: 5 μM ATP
# Text: In addition to the c-Abl PK/LDH coupled assay (above), homogeneous luminescence-based inhibitor screening assays were developed for c-Abl, MET, AurA, and PDK1 kinases (among others). Each of these assays made use of an ATP depletion assay (Kinase-Glo™, Promega Corporation, Madison, Wis.) to quantitate kinase activity. The Kinase-Glo™ format uses a thermostable luciferase to generate luminescent signal from ATP remaining in solution following the kinase reaction. The luminescent signal is inversely correlated with the amount of kinase activity.
# Materials: PDKtide peptide substrate=KTFCGTPEYLAPEVRREPRJLSEEEQEMFRDFDYIADWC (SEQ ID NO:3) (Upstate Cat#12-401), ATP (Sigma Cat#A-3377, FW=551), HEPES buffer, pH 7.5, 10% Brij 35 (Calbiochem Cat#203728), MgCl2, Staurosporine (Streptomyces sp. Sigma Cat#85660-1MG), white Costar 384-well flat-bottom plate (VWR Cat#29444-088), PDK1 kinase (see below), Kinase-Glo™ (Promega Cat#V6712).
# Stock Solutions: 1 mM PDKtide substrate (1 mg in 200 μl, as supplied by Upstate), stored at −20° C.; 100 mM HEPES buffer, pH 7.5 (5 ml 1M HEPES stock+45 ml miliQH2O); 10 mM ATP (5.51 mg/ml in dH2O) stored at −20° C. (diluted 25 μl into total of 10 ml miliQH2O daily=25 μM ATP working stock); 100 mM MgCl2; 10% Brij 35 stored at 2-8° C.; 200 μM Staurosporine, 2× Kinase-Glo™ reagent (made fresh or stored at −20° C.).
# Standard Assay Setup for 384-well format (20 μl kinase reaction, 40 μl detection reaction): 10 mM MgCl2; 0.01 mM PDKtide; 1 μl test compound (in DMSO); 0.1 μg/ml PDK1 kinase; 5 μM ATP; 10 mM MgCl2; 100 mM HEPES+0.01% Brij buffer. Positive controls contained DMSO with no test compound. Negative controls contained 10 μM staurosporine. The kinase reactions were initiated at time t=0 by the addition of ATP. Kinase reactions were incubated at 21° C. for 40 min, then 20 μl of Kinase-Glo™ reagent were added to each well to quench the kinase reaction and initiate the luminescence reaction. After a 20 min incubation at 21° C., the luminescence was detected in a plate-reading luminometer.
# Cell pellets produced from 6 L of Sf9 insect cells expressing human PDK1 were resuspended in a buffer containing 50 mM Tris-HCl pH 7.7 and 250 mM NaCl in a volume of approximately 40 mL per 1 L of original culture. One tablet of Roche Complete, EDTA-free protease inhibitor cocktail (Cat# 1873580) and 85 units Benzonase (Novagen Cat#70746-3)) were added per 1 L of original culture. The suspension was stirred for 1 hour at 4° C. Debris was removed by centrifugation for 30 minutes at 39,800×g at 4° C. The supernatant was decanted into a 500 mL beaker and 10 ml of a 50% slurry of Qiagen Ni-NTA Agarose (Cat#30250) that had been pre-equilibrated in 50 mM Tris-HCl pH 7.8, 500 mM NaCl, 10% Glycerol, 10 mM Imidazole, and 10 mM Methionine, were added and stirred for 30 minutes at 4° C. The sample was then poured into a drip column at 4° C. and washed with 10 column volumes of 50 mM Tris-HCl pH 7.8, 500 mM NaCl, 10% Glycerol, 10 mM Imidazole, and 10 mM Methionine. The protein was eluted using a step gradient with two column volumes each of the same buffer containing 50 mM, and 500 mM Imidazole, sequentially. The 6×Histidine tag was cleaved overnight using 40 units of TEV protease (Invitrogen Cat#10127017) per 1 mg of protein while dialyzing in 50 mM Tris-HCl pH 7.8, 500 mM NaCl, 10% Glycerol, 10 mM Imidazole, and 10 mM Methionine at 4° C. The 6× Histidine tag was removed by passing the sample over a Pharmacia 5 ml IMAC column (Cat# 17-0409-01) charged with Nickel and equilibrated in 50 mM Tris-HCl pH 7.8, 500 mM NaCl, 10% Glycerol, 10 mM Imidazole, and 10 mM Methionine. The cleaved protein eluted in the flow-through, whereas the uncleaved protein and the His-tag remained bound to the Ni-column. The cleaved protein fractions were combined and concentrated using spin concentrators. […]
row,Compound,pIC50
1,CNC(=O)c1cc(-c2cnc3[nH]cc(-c4ccccc4OC)c3c2)cs1 [AE2],5.30 to 6.00
2,COc1ccccc1-c1c[nH]c2ncc(-c3csc(C(=O)N(C)C)c3)cc12 [AE3],5.30 to 6.00
3,COc1ccccc1-c1c[nH]c2ncc(-c3ccc4[nH]cc(CC(=O)O)c4c3)cc12 [AE10],5.30 to 6.00
4,COc1ccccc1-c1c[nH]c2ncc(-c3ccc(S(N)(=O)=O)s3)cc12 [AE11],5.30 to 6.00
5,N#Cc1cc(-c2cnc3[nH]cc(-c4ccc5[nH]ccc5c4)c3c2)ccc1O [AE20],5.30 to 6.00
6,COc1ccccc1-c1c[nH]c2ncc(-c3ccc(S(N)(=O)=O)cc3)cc12 [AE21],5.30 to 6.00
7,Nc1nc(-c2c[nH]c3ncc(-c4ccc5[nH]ccc5c4)cc23)cs1 [AE55],> 6.00
8,COc1cc(-c2cnc3[nH]cc(-c4ccccc4OC)c3c2)ccc1O [AE64],5.30 to 6.00

# The remaining lines, values ahead:
row,pIC50,Compound
1,5.30 to 6.00,COc1ccccc1-c1c[nH]c2ncc(-c3cc[nH]c(=O)c3)cc12 [AE9]
2,5.30 to 6.00,Oc1cccc(-c2cnc3[nH]cc(-c4ccc(O)c(F)c4)c3c2)c1 [AE48]
3,5.30 to 6.00,Oc1cccc(-c2cnc3[nH]cc(-c4ccn[nH]4)c3c2)c1 [AE49]
4,> 6.00,COc1cc(-c2cnc3[nH]cc(-c4ccc(O)cc4)c3c2)ccc1O [AE58]
